According to EP0572662B1, “SILVER HALIDE PHOTOGRAPHIC MATERIAL” (FUJI PHOTO FILM CO., LTD., priority 1991, dated 1993):

Test: Speed of silver telluride formation in a silver halide emulsion (Kubelka-Munk reflectivity test)
Type: physicochemical
Settings: octahedral silver bromide emulsion, 50°C, pH 6.3, pAg 8.3, telluride 1 × 10^-3 mol/mol Ag, reflectivity at 520 nm
Experimental: The speed with which silver telluride is formed in the silver halide emulsion can be determined by the following test.
When a tellurium sensitizer is added in a great amount (e.g., 1 × 10^-3 mol/mol Ag), the silver telluride formed absorbs light beam of the visible region. […] 181 (1966) and ibid., Vol. 16, p. 102 (1968) can be applied for sulfur sensitizers. Therefore, the relative speed at which silver telluride is formed can easily be obtained by the same method as used in determining the amount of silver sulfide formed in a silver halide emulsion from the infinite reflectivity of the emulsion to visible light beams (520 nm) in accordance the Kubelka-Munk formula. […]
An emulsion which contains octahedral silver bromide grains having an average size of 0.5 µm (containing 0.75 mol of AgBr and 80 g of gelatin per kilogram) is maintained at 50°C, while holding pH and pAg at 6.3 and 8.3, respectively. […] Then, the reflectivity (R) of the emulsion to light beams of 520 nm is detected at times by means of a spectrophotometer having an integrating sphere, using the reflectivity of a blank emulsion as reference. Every reflectivity, thus detected, is substituted in the Kubelka-Munk formula, (1-R)^2/2R. The time spend until the value of (1-R)^2/2R becomes 0.01 is measured. The pseudo-first-order reaction rate constant k (min-1) is determined from the time thus measured. […]

| Structure (SMILES) | pseudo-first-order reaction rate constant k [min⁻¹] |
| --- | --- |
| CC(C)P(=[Te])(C(C)C)C(C)C [Compound 4, ((i)C3H7)3P = Te] | ~7e-05 |
| CC(C)CP(=[Te])(CC(C)C)CC(C)C [Compound 7, ((i)C4H9)3P = Te] | ~0.004 |
